The supplement of paper PMC9673313

Compound: Clc1ccc2c(N3CCN(CCCN4CCN(c5ccnc6cc(Cl)ccc56)CC4)CC3)ccnc2c1 [piperaquine]
Procedure: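 Kenyan Plasmodium falciparum field isolates (2008-2021) were tested in a SYBR Green I growth-inhibition assay, either immediately ex vivo (fresh samples) or in vitro after culture adaptation. Cultures were at 1% parasitemia and 2% hematocrit, incubated with serial drug dilutions for 72 h at 37 °C (5% O2, 5% CO2), then read by fluorescence. IC50 was fitted by non-linear regression of the dose-response curve.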

Test System	IC50 growth inhibition [µg/mL]
MDH 12/01/0063	0.012
KCH 15/05/310	0.0734
KOM 16/07/0616	0.0305
KCH 15/06/316	0.0313
KDH 16/07/1829	0.00272
MDH 16/08/153	0.00762
KSI 18/09/0006	0.00686
KDH 16/07/1823	0.0202
KOM 13/11/104	0.0175
KSI 13/06/360	0.00681
KDH 16/07/1828	0.0285
KOM 19/12/0150	0.00909
KOM 15/05/421 D42	0.0404
KDH 21/04/0218	0.003
KOM 13/08/0034	0.0232
KOM 13/10/0089	0.0186
KDH 12/10/909	0.00983
KSI 14/01/474	0.016
MGT 21/08/0122	0.0872
KCH 10/04/099	0.517
KDH 21/05/0225	0.0071
KOM 21/03/267	0.0023
MGT 13/11/0003	0.0229
KSI 15/10/831	0.0251

Test System	IC50 growth inhibition [µg/mL]
KSI 10/09/096	0.0116
601-006	0.016
MDH 19/12/0045	0.0302
KOM 21/08/0327	0.0283
KDH 14/05/1397	0.0137
KOM 20/02/0179	0.0157
601-0031	0.0161
KDH 10/12/535	0.0114
MDH 10/8/0014	0.00139
KOM 14/03/189	0.018
601-0163	0.022
MGT 18/09/0013	0.00348
KSI 12/12/304	0.0244
KSI 12/06/270	0.0175
KSI 15/06/782	0.0255
KSI 16/06/900	0.0333
KCH 13/9/226	0.0268
KOM 14/03/169	0.015
KSI 16/07/912	0.0151
KSI 19/06/0027	0.00354
KSI 13/3/323	0.0287
KSI 21/04/0063	0.003
KDH 21/05/0220	0.0025
KSI 12/01/224	0.0193

Test System	IC50 growth inhibition [µg/mL]
KDH 21/02/0166	0.0768
MGT 21/03/0108	0.0078
KCH 17/09/373	0.00701
KDH 18/07/0001	0.00119
KOM 13/11/116	0.0287
KCH 15/09/334	0.00243
601-226	0.0572
KSI 13/10/422	0.0199
KSI 10/9/111	0.284
KCH 18/07/0001	0.0158
KDH 21/08/0250	0.0617
KCH 11/04/143	0.0205
KOM 21/08/0340	0.0382
KSI 13/04/334	0.0195
601-0140	0.0251
KDH 16/07/1824	0.0512
KDH 11/9/709	0.55
KOM 21/05/0278	0.0027
MDH 18/08/003	0.00381
MDH 19/01/0029	0.00967
KCH 14/03/247	0.0132
MDH 13/08/145	0.0248
KOM 13/07/0007	0.00616
KSI 14/08/627	0.00419

Test System	IC50 growth inhibition [µg/mL]
KCH 14/10/281	0.00857
KOM 16/07/0609	0.0181
KOM 19/12/0166	0.0355
KOM 20/03/0184	0.0308
KDH 19/12/0157	0.0175
MGT 19/09/0054	0.0326
601-239	0.0156
MGT 14/03/0015	0.00779
601-262	0.112
KCH 19/04/0010	0.00314
MGT 19/11/0063	0.0136
KCH 10/06/120	0.163
KOM 21/02/0228	0.0626
KSI 15/04/743	0.00175
MGT 15/10/104	0.00335
KOM 20/01/0172	0.0184
KOM 13/07/0006	0.0108
KDH 19/12/0155	0.0208
KCH 13/1/192	0.0674
MGT 21/05/115	0.0062
KSI 18/09/0004	0.00835
KOM 19/12/0149	0.0283
KSI 12/08/285	0.0196
KOM 14/09/317	0.0159

Test System	IC50 growth inhibition [µg/mL]
KCH 11/05/145	0.012
KOM 14/04/215	0.0255
KSI 16/07/906	0.038
KSI 15/04/732	0.0061
MDH 12/01/0067	0.0107
KDH 16/07/1826	0.0257
KSI 10/09/106	0.201
MDH 19/01/0031	0.0262
MGT 19/09/0057	0.0297
KSI 13/10/430	0.00784
KDH 11/10/733	5.01
KDH 15/04/1619	0.0223
KDH 18/07/0010	0.0227
MDH 10/10/0020	0.0168
KSI 15/09/825	0.0121
KSI 9/06/0001	0.504
MDH 18/08/004	0.000851
601-257	0.112
KCH 10/05/108	0.0451
KOM 14/06/270	0.0171
KOM 13/07/009	0.0226
KDH 12/10/918	0.0132
KOM 20/01/0165	0.0111
KDH 21/02/0173	0.0368

Test System	IC50 growth inhibition [µg/mL]
MDH 18/09/0008	0.00325
601-0018	0.00948
KSI 16/08/916	0.0148
MGT 18/08/0004	0.00164
KCH 10/05/113	0.00858
KCH 17/09/374	0.00492
KDH 12/11/928	0.00444
KOM 21/05/0280	0.0013
KSI 13/05/346	0.0502
KOM 15/05/417	0.00145
KDH 16/07/1821	0.0191
KOM 19/01/0053	0.0191
KDH 14/03/1351	0.0107
MDH 11/12/0052	0.00417
KOM 15/05/416	0.00162
KCH 16/08 369	0.00323
601-0260	2.46
KOM 13/07/0010	0.00114
KDH 21/05/0230	0.127
KDH 16/07/1832	0.00427
MGT 17/11/133	0.00335
KCH 16/05/361	0.00583
KOM 16/07/0611	0.0143
KDH 12/11/923	0.0145

Test System	IC50 growth inhibition [µg/mL]
KSI 14/02/488	0.0157
KDH 11/10/728	0.105
KSI 15/06/786	0.0146
KOM 21/03/0202	0.003
KOM 21/05/0265	0.0027
KOM 21/03/0256	0.0026
KCH 15/10/339	0.00252
MGT 14/07/0033	0.00335
KOM 20/01/0174	0.062
KDH 10/02/0354	0.016
KSI 19/06/0032	0.0281
KOM 21/04/0219	0.0227
KOM 13/08/0025	0.0147
MGT 14/08/034	0.0295
KDH 16/07/1831	0.0278
KDH 14/05/1400	0.027
KOM 16/07/0620	0.0115
KSI 17/10/920	0.00471
KDH 21/02/0197	0.0184
KDH 15/06/1659	0.0165
KOM 19/11/0147	0.0105
KDH 21/02/0170	0.0523
KOM 21/05/0271	0.0021
KOM 21/08/0344	0.0249

Test System	IC50 growth inhibition [µg/mL]
601-0157	0.0068
KOM 18/07/0004	0.0101
KDH 19/07/0120	0.00745
KSI 14/04/534	0.00127
601-272	0.0205
KOM 21/03/0292	0.0137
MDH 16/05/150	0.00167
601-0284	0.0176
KDH 20/01/0159	0.0288
KOM 20/01/0168	0.0157
KOM 20/02/0178	0.00832
KSI 15/04/730	0.00513
KOM 18/07/0005	0.00889
KSI 13/1/307	0.041
KDH 15/01/1569	0.00462
KSI 14/03/506	0.0128
MGT 15/10/105	0.0197
KSI 14/03/504	0.013
KDH 15/04/1616	0.028
